Measurements as given in the NIST ThermoML archive (doi:10.1016/j.jct.2018.02.022).

Assay: xn = mol fraction of the nth substance listed
Settings: 293.15 K, 92.3 kPa, Liquid; for viscosity: Concentric cylinders viscometry; for speed of sound: Frequency=3 MHz, Single path-length method; for mass density: Vibrating tube method

OCCOCCOCCO [triethylene glycol] + O
Settings | mass density [kg/m3] | speed of sound [m/s] | viscosity [mPa·s]
x1 = 0.0101 | 1009.83 | 1526.7 | –
x1 = 0.0196 | 1019.71 | 1563.3 | –
x1 = 0.025 | 1024.91 | – | 1.881
x1 = 0.029 | 1028.88 | 1595.7 | –
x1 = 0.0381 | 1036.74 | 1622.5 | –
x1 = 0.0489 | 1044.89 | – | 2.921
x1 = 0.0496 | 1045.76 | 1651.6 | –
x1 = 0.0601 | 1053.18 | 1673.8 | –
x1 = 0.0689 | 1058.69 | 1689 | –
x1 = 0.0754 | 1062.23 | – | 4.368
x1 = 0.0801 | 1065 | 1704.9 | –
x1 = 0.0905 | 1070.23 | 1716.5 | –
x1 = 0.0993 | 1074.35 | – | 5.989
x1 = 0.0996 | 1074.38 | 1724.7 | –
x1 = 0.1479 | 1090.64 | 1744.5 | –
x1 = 0.15 | 1091.94 | – | 10.19
x1 = 0.1993 | 1101.82 | – | 14.46
x1 = 0.2004 | 1101.27 | 1742 | –
x1 = 0.2462 | 1107.12 | 1732.1 | –
x1 = 0.2526 | 1107.94 | – | 19.41
x1 = 0.2998 | 1111.26 | – | 23.57
x1 = 0.3004 | 1111.57 | 1718.2 | –
x1 = 0.3474 | 1114.22 | 1706.1 | –
x1 = 0.3539 | 1113.94 | – | 27.83
x1 = 0.3948 | 1116.15 | 1694.8 | –
x1 = 0.4009 | 1115.83 | – | 31.2
x1 = 0.4467 | 1117.71 | 1683.9 | –
x1 = 0.4492 | 1117.53 | – | 34.1
x1 = 0.4992 | 1119.04 | – | 36.67
x1 = 0.5021 | 1118.97 | 1673.6 | –
x1 = 0.548 | 1119.77 | 1666.3 | –
x1 = 0.5484 | 1120.2 | – | 38.84
x1 = 0.5923 | 1120.43 | 1660 | –
x1 = 0.5996 | 1121.03 | – | 40.64
x1 = 0.6442 | 1121.04 | 1653.7 | –
x1 = 0.6506 | 1121.46 | – | 42.15
x1 = 0.701 | 1121.62 | – | 43.67
x1 = 0.7095 | 1121.66 | 1647 | –
x1 = 0.7531 | 1122.03 | 1642.9 | –
x1 = 0.7567 | 1121.7 | – | 44.87
x1 = 0.7859 | 1122.28 | 1640.2 | –
x1 = 0.8035 | 1121.91 | – | 45.73
x1 = 0.8387 | 1122.62 | 1636.5 | –
x1 = 0.8406 | 1122.25 | – | 46.36
x1 = 0.8981 | 1123.02 | – | 46.96
x1 = 0.9031 | 1123.01 | 1632.1 | –
x1 = 0.9181 | 1123.08 | 1631.3 | –
x1 = 0.9344 | 1123.16 | 1630.5 | –
x1 = 0.9489 | 1123.57 | – | 47.64
x1 = 0.9569 | 1123.28 | 1629.2 | –
x1 = 0.9782 | 1123.37 | 1628.1 | –
x1 = 1 | 1123.48 | 1626.8 | 48.06
